Measured values reported in publication PMC10893631, “Receptor-based pharmacophore modeling, molecular docking, synthesis and biological evaluation of novel VEGFR-2, FGFR-1, and BRAF multi-kinase inhibitors” (BMC Chemistry, 2024).

Experiments:
Experiment in all cases: NCI SRB growth inhibition (single dose 10 µM / five-dose)
Assay type in all cases: cell-based, human
[1] = test system: NCI-H226; conditions: Homo sapiens; for inhibition at 10 µM: NCI-H226 (Non-small cell lung cancer), read-out: GI%
Method in brief: (§1)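 Growth inhibition is derived from seven absorbance readings per agent (Tz, C and five Ti). Where a parameter level is not reached or is exceeded, the value is given as greater or less than the highest or lowest concentration tested.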

[2] = test system: COLO 205; conditions: Homo sapiens; for inhibition at 10 µM: COLO 205 (Colon cancer), read-out: GI%
Method in brief: as §1

[3] = test system: HOP-62; conditions: Homo sapiens; for inhibition at 10 µM: HOP-62 (Non-small cell lung cancer), read-out: GI%
Method in brief: as §1

[4] = test system: HCC-2998; conditions: Homo sapiens; for inhibition at 10 µM: HCC-2998 (Colon cancer), read-out: GI%
Method in brief: as §1

[5] = test system: HT29; conditions: Homo sapiens, HT-29; HT29 (Colon cancer), 10 µM; read-out: GI%
Method in brief: as §1

[6] = test system: SNB-75; conditions: Homo sapiens; for inhibition at 10 µM: SNB-75 (CNS cancer), read-out: GI%
Method in brief: as §1

[7] = test system: NCI/ADR-RES; conditions: Homo sapiens; for inhibition at 10 µM: NCI/ADR-RES (Ovarian cancer), read-out: GI%
Method in brief: as §1

[8] = test system: A498; conditions: Homo sapiens; for inhibition at 10 µM: A498 (Renal cancer), read-out: GI%
Method in brief: as §1

[9] = test system: MALME-3 M; conditions: Homo sapiens; for inhibition at 10 µM: MALME-3 M (Melanoma), read-out: GI%
Method in brief: as §1

[10] = test system: T-47D; conditions: Homo sapiens, T47D; for inhibition at 10 µM: T-47D (Breast cancer), read-out: GI%
Method in brief: as §1

[11] = test system: SNB-19; conditions: Homo sapiens; for inhibition at 10 µM: SNB-19 (CNS cancer), read-out: GI%
Method in brief: as §1

[12] = test system: LOX IMVI; conditions: Homo sapiens; for inhibition at 10 µM: LOX IMVI (Melanoma), read-out: GI%
Method in brief: as §1

[13] = test system: NCI-H23; conditions: Homo sapiens; for inhibition at 10 µM: NCI-H23 (Non-small cell lung cancer), read-out: GI%
Method in brief: as §1

[14] = test system: UACC-257; conditions: Homo sapiens; for inhibition at 10 µM: UACC-257 (Melanoma), read-out: GI%
Method in brief: as §1

[15] = test system: OVCAR-5; conditions: Homo sapiens; for inhibition at 10 µM: OVCAR-5 (Ovarian cancer), read-out: GI%
Method in brief: as §1

[16] = test system: SK-MEL-5; conditions: Homo sapiens; for inhibition at 10 µM: SK-MEL-5 (Melanoma), read-out: GI%
Method in brief: as §1

[17] = test system: NCI-H322M; conditions: Homo sapiens; for inhibition at 10 µM: NCI-H322M (Non-small cell lung cancer), read-out: GI%
Method in brief: as §1

[18] = test system: ACHN; conditions: Homo sapiens; for inhibition at 10 µM: ACHN (Renal cancer), read-out: GI%
Method in brief: as §1

[19] = test system: MOLT-4; conditions: Homo sapiens; for inhibition at 10 µM: MOLT-4 (Leukemia), read-out: GI%
Method in brief: as §1

[20] = test system: RPMI-8226; conditions: Homo sapiens; for inhibition at 10 µM: RPMI-8226 (Leukemia), read-out: GI%
Method in brief: as §1

[21] = test system: OVCAR-4; conditions: Homo sapiens; for inhibition at 10 µM: OVCAR-4 (Ovarian cancer), read-out: GI%
Method in brief: as §1

[22] = test system: HCT-15; conditions: Homo sapiens; for inhibition at 10 µM: HCT-15 (Colon cancer), read-out: GI%
Method in brief: as §1

[23] = test system: HOP-92; conditions: Homo sapiens; for inhibition at 10 µM: HOP-92 (Non-small cell lung cancer), read-out: GI%
Method in brief: as §1

[24] = test system: SK-MEL-2; conditions: Homo sapiens
Method in brief: as §1

[25] = test system: OVCAR-3; conditions: Homo sapiens; for inhibition at 10 µM: OVCAR-3 (Ovarian cancer), read-out: GI%
Method in brief: as §1

[26] = test system: IGROV1; conditions: Homo sapiens, IGROV-1; for inhibition at 10 µM: IGROV1 (Ovarian cancer), read-out: GI%
Method in brief: as §1

## COc1ccc(-c2nc3cc(C(=O)NN=Cc4ccccc4O)ccc3[nH]2)cc1 [8h, N'-(2-Hydroxybenzylidene)-2-(4-methoxyphenyl)-1H-benzo[d]imidazole-5-carbohydrazide]
[1]
  inhibition at 10 µM: > 100%
[1]; NCI-H226, Non-small cell lung cancer, five-dose
  GI50: 6940 nM
[2]
  inhibition at 10 µM: > 100%
[2]; COLO 205, Colon cancer, five-dose
  GI50: 2900 nM
[3]
  inhibition at 10 µM: > 100%
[3]; HOP-62, Non-small cell lung cancer, five-dose
  GI50: 5090 nM
[4]
  inhibition at 10 µM: 99.6%
[4]; HCC-2998, Colon cancer, five-dose
  GI50: 4430 nM
[5]
  inhibition at 10 µM: > 100%
[6]
  inhibition at 10 µM: 95.6%
[6]; SNB-75, CNS cancer, five-dose
  GI50: 390 nM
[7]
  inhibition at 10 µM: 63.2%
[7]; NCI/ADR-RES, Ovarian cancer, five-dose
  GI50: 6740 nM
[8]
  inhibition at 10 µM: 54.5%
[8]; A498, Renal cancer, five-dose
  GI50: 9210 nM
[9]
  inhibition at 10 µM: > 100%
[9]; MALME-3 M, Melanoma, five-dose
  GI50: 1770 nM
[10]
  inhibition at 10 µM: > 100%
[10]; T-47D, Breast cancer, five-dose
  GI50: 2600 nM
[11]
  inhibition at 10 µM: > 100%
[11]; SNB-19, CNS cancer, five-dose
  GI50: 1760 nM
[12]
  inhibition at 10 µM: 98.7%
[12]; LOX IMVI, Melanoma, five-dose
  GI50: 2230 nM
[13]
  inhibition at 10 µM: 94.6%
[13]; NCI-H23, Non-small cell lung cancer, five-dose
  GI50: 2060 nM
[14]
  inhibition at 10 µM: 85%
[14]; UACC-257, Melanoma, five-dose
  GI50: 6320 nM
[15]
  inhibition at 10 µM: > 100%
[15]; OVCAR-5, Ovarian cancer, five-dose
  GI50: 6550 nM
[16]
  inhibition at 10 µM: > 100%
[16]; SK-MEL-5, Melanoma, five-dose
  GI50: 1730 nM
[17]
  inhibition at 10 µM: 96.7%
[17]; NCI-H322M, Non-small cell lung cancer, five-dose
  GI50: 4230 nM
[18]
  inhibition at 10 µM: > 100%
[18]; ACHN, Renal cancer, five-dose
  GI50: 3020 nM
[19]
  inhibition at 10 µM: 88.5%
[19]; MOLT-4, Leukemia, five-dose
  GI50: 1700 nM
[20]
  inhibition at 10 µM: 96.7%
[20]; RPMI-8226, Leukemia, five-dose
  GI50: 1390 nM
[21]
  inhibition at 10 µM: > 100%
[21]; OVCAR-4, Ovarian cancer, five-dose
  GI50: 2240 nM
[22]
  inhibition at 10 µM: > 100%
[22]; HCT-15, Colon cancer, five-dose
  GI50: 1250 nM
[23]
  inhibition at 10 µM: > 100%
[23]; HOP-92, Non-small cell lung cancer, five-dose
  GI50: 2830 nM
[24]; SK-MEL-2, Melanoma, five-dose
  GI50: 5170 nM
[25]
  inhibition at 10 µM: > 100%
[25]; OVCAR-3, Ovarian cancer, five-dose
  GI50: 1980 nM
[26]
  inhibition at 10 µM: > 100%
[26]; IGROV1, Ovarian cancer, five-dose
  GI50: 2260 nM

## COc1ccc(-c2nc3cc(C(=O)NN=Cc4cccc(O)c4)ccc3[nH]2)cc1 [8i, N'-(3-Hydroxybenzylidene)-2-(4-methoxyphenyl)-1H-benzo[d]imidazole-5-carbohydrazide]
[1]
  inhibition at 10 µM: 7.75%
[2]
  inhibition at 10 µM: 32.4%
[3]
  inhibition at 10 µM: 42%
[4]
  inhibition at 10 µM: 14.9%
[5]
  inhibition at 10 µM: 74.5%
[6]
  inhibition at 10 µM: 17.8%
[7]
  inhibition at 10 µM: < 5%
[8]
  inhibition at 10 µM: < 5%
[9]
  inhibition at 10 µM: > 100%
[10]
  inhibition at 10 µM: 86.8%
[11]
  inhibition at 10 µM: 15.8%
[12]
  inhibition at 10 µM: 26.1%
[13]
  inhibition at 10 µM: 6.56%
[14]
  inhibition at 10 µM: 47.4%
[15]
  inhibition at 10 µM: < 5%
[16]
  inhibition at 10 µM: 40.5%
[17]
  inhibition at 10 µM: 18.3%
[18]
  inhibition at 10 µM: < 5%
[19]
  inhibition at 10 µM: 79%
[20]
  inhibition at 10 µM: 24.8%
[21]
  inhibition at 10 µM: 27.1%
[22]
  inhibition at 10 µM: 5.17%
[23]
  inhibition at 10 µM: 27%
[24]; SK-MEL-2 (Melanoma), 10 µM, read-out: GI%
  inhibition at 10 µM: 37.5%
[25]
  inhibition at 10 µM: 8.04%
[26]
  inhibition at 10 µM: 11.2%
